Results published in patent US20250129027A1 (APOGEE PHARMACEUTICALS, INC., priority 2023, published 2025).

Assays:
human recombinant FAAH = human recombinant FAAH (Homo sapiens (Human), UniProt O00519); assay: In vitro inhibition of FAAH activity (fluorescent inhibitor screening kit, AMC arachidonoyl amide); assay type: biochemical; conditions: human recombinant FAAH; read-out: Inhibition on FAAH activity (IC50)
From the text: The inhibitory effect of compounds of Formula (I-IV) on the activity of human recombinant FAAH was studied using a commercial inhibitor screening kit (Cayman Chemicals, Godlewski et al., 2010 [19]). In brief, FAAH hydrolyzes AMC arachidonoyl amide resulting in the release of the fluorescent product, while the inhibitor will inhibit the FAAH activity and thus reduce the fluorescent signal. The resulting fluorophore can be analyzed using an excitation wavelength of 340-360 nm and an emission wavelength of 450-465 nm by a plate reader (Synergy H1, Biotek). Inhibition is calculated as a percentage of the treated sample over the non-treated control based on the signal values, and where possible, a range of concentrations of compounds was tested to find the IC50 values (i.e. the concentration of compound that inhibited 50% FAAH activity).

human recombinant MAGL = human recombinant MAGL (Homo sapiens (Human), UniProt Q99685); assay: In vitro inhibition of MAGL activity (inhibitor screening kit, 4-nitrophenylacetate); assay type: biochemical; conditions: human recombinant MAGL
Experimental: The inhibitory effect of the compounds on activity of human recombinant MAGL was also studied using a commercial inhibitor screening kit (Cayman Chemicals). In brief, MAGL hydrolyzes 4-nitrophenylacetate resulting in a yellow product, 4-nitrophenol with an absorbance at 405-412 nm, while the inhibitor will inhibit the MAGL activity and thus reduce the yellow signal. The absorbance of the yellow product can be analyzed using the plate reader. Inhibition is calculated as a percentage of the treated sample over the non-treated MAGL control based on the signal values.

Chain of human recombinant FAAH (O00519 whole entry): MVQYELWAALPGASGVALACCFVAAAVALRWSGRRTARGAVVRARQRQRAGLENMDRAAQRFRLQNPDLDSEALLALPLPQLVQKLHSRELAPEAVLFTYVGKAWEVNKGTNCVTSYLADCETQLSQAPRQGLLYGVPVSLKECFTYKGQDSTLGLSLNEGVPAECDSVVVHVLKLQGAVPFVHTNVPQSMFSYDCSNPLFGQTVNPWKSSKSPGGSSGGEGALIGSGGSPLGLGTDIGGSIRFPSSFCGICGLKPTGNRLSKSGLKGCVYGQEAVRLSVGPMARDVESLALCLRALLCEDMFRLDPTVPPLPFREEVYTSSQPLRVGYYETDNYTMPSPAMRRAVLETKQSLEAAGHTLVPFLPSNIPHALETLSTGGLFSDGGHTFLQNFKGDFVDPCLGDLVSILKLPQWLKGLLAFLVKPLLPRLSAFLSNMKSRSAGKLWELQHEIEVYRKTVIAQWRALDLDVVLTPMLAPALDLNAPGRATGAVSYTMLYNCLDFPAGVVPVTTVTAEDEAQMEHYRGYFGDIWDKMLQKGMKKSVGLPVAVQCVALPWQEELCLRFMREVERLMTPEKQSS
Chain of human recombinant MAGL (Q99685 whole entry): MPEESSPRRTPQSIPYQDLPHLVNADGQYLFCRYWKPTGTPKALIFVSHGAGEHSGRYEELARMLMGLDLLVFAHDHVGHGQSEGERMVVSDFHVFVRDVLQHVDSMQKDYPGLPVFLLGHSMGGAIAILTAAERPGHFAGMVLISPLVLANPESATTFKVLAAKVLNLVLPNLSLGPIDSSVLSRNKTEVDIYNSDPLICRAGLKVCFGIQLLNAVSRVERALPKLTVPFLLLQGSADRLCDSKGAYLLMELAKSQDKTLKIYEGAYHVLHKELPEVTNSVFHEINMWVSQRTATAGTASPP

| SMILES | IC50 (human recombinant FAAH) | IC50 (human recombinant MAGL) |
| --- | --- | --- |
| O=C(NC1CCCCC1)Oc1cccc(-c2cncc(-c3ncn[nH]3)c2)c1 [Example 224, 3-(5-(1H-1,2,4-triazol-5-yl)pyridin-3-yl)phenyl cyclohexylcarbamate] | 100 to 1000 nM | > 10000 nM |
| O=C(NC1CCCC1)Oc1cccc(-c2cncc(-c3cccs3)c2)c1 [Example 62, 3-(5-(thiophen-2-yl)pyridin-3-yl)phenyl cyclopentylcarbamate] | 10 to 100 nM | ~10000 nM |
| O=C(NC1CCCC1)Oc1cccc(-c2cncc(-c3ncco3)c2)c1 [Example 75, 3-(5-(oxazol-2-yl)pyridin-3-yl)phenyl cyclopentylcarbamate] | 10 to 1000 nM | > 10000 nM |
| N#Cc1cncc(-c2cccc(OC(=O)NC3CCCCCC3)c2)c1 [Example 29, 3-(5-cyanopyridin-3-yl)phenyl cycloheptylcarbamate] | ~100 nM | > 10000 nM |
| Cc1cc(OC(=O)NC2CCC(C)CC2)cc(-c2cncc(-c3ncco3)c2)c1 (stereo not shown) [Example 102, 3-methyl-5-(5-(oxazol-2-yl)pyridin-3-yl)phenyl (4-methylcyclohexyl)carbamate] | > 1000 nM | > 10000 nM |
| COc1ccc(OC(=O)NC2CCCCCC2)cc1-c1cncc(-c2nnn[nH]2)c1 [Example 255, 3-(5-(1H-tetrazol-5-yl)pyridin-3-yl)-4-methoxyphenyl cycloheptylcarbamate] | > 1000 nM | > 10000 nM |
| O=C(NC1CCCC1)Oc1cccc(-c2cncc(-c3ccc[nH]3)c2)c1 [Example 38, 3-(5-(1H-pyrrol-2-yl)pyridin-3-yl)phenyl cyclopentylcarbamate] | 100 to 1000 nM | > 10000 nM |
| O=C(NC1CCCCCC1)Oc1cccc(-c2cncc(-c3ccco3)c2)c1 [Example 52, 3-(5-(furan-2-yl)pyridin-3-yl)phenyl cycloheptylcarbamate] | 10 to 100 nM | ~10000 nM |
| O=C(NCc1ccccc1)Oc1ccc(O)c(-c2cncc(-c3ncn[nH]3)c2)c1 [Example 228, 3-(5-(1H-1,2,4-triazol-5-yl)pyridin-3-yl)-4-hydroxyphenyl benzylcarbamate] | 100 to 1000 nM | > 10000 nM |
| COc1ccc(OC(=O)NCc2ccccc2)cc1-c1cncc(-c2ncn[nH]2)c1 [Example 234, 3-(5-(1H-1,2,4-triazol-5-yl)pyridin-3-yl)-4-methoxyphenyl benzyl carbamate] | > 1000 nM | > 10000 nM |
| CSc1ccc(OC(=O)NC2CCCC2)cc1-c1cncc(-c2nnco2)c1 [Example 189, 3-(5-(1,3,4-oxadiazol-2-yl)pyridin-3-yl)-4-(methylthio)phenyl cyclopentylcarbamate] | 100 to 1000 nM | > 10000 nM |
| COc1ccc(OC(=O)NCc2ccccc2)cc1-c1cncc(-c2nccs2)c1 [Example 123, 4-methoxy-3-(5-(thiazol-2-yl)pyridin-3-yl)phenyl benzylcarbamate] | ~1000 nM | > 10000 nM |
| O=C(NCc1ccccc1)Oc1cccc(-c2cncc(-c3nnn[nH]3)c2)c1 [Example 240, 3-(5-(1H-tetrazol-5-yl)pyridin-3-yl)phenyl benzylcarbamate] | > 1000 nM | > 10000 nM |
| CCCCCCCCNC(=O)Oc1cc(F)cc(-c2cncc(-c3nnco3)c2)c1 [Example 195, 3-(5-(1,3,4-oxadiazol-2-yl)pyridin-3-yl)-5-fluorophenyl octylcarbamate] | 1 to 10 nM | ~1000 nM |
| CCCCCCCCNC(=O)Oc1cccc(-c2cncc(C=O)c2)c1 [Example 16, 3-(5-formylpyridin-3-yl)phenyl octylcarbamate] | 10 to 100 nM | 1000 to 10000 nM |
| O=C(NC1CCCC1)Oc1cccc(-c2cncc(-c3ncn[nH]3)c2)c1 [Example 223, 3-(5-(1H-1,2,4-triazol-5-yl)pyridin-3-yl)phenyl cyclopentylcarbamate] | 100 to 1000 nM | > 10000 nM |
| CCOC(=O)c1cncc(-c2cccc(OC(=O)Nc3ccc(F)cc3)c2)c1 [Example 7, ethyl 5-(3-(((4-fluorophenyl)carbamoyl)oxy)phenyl)nicotinate] | > 1000 nM | > 10000 nM |
